# Assay results taken from BigSolDB 2.1.
smiles,measurement,setting,value
O=C(Oc1ccccc1)c1ccccc1O,solubility (mole fraction),"in ethanol, 283.15 K",0.0226
same,solubility (mole fraction),"in ethanol, 288.15 K",0.0361
same,solubility (mole fraction),"in ethanol, 293.15 K",0.0647
same,solubility (mole fraction),"in ethanol, 298.15 K",0.127
same,solubility (mole fraction),"in ethanol, 303.15 K",0.289
same,solubility (mole fraction),"in ethanol, 308.15 K",0.715
same,solubility (mole fraction),"in isobutanol, 283.15 K",0.0185
same,solubility (mole fraction),"in isobutanol, 288.15 K",0.0288
same,solubility (mole fraction),"in isobutanol, 293.15 K",0.0517
same,solubility (mole fraction),"in isobutanol, 298.15 K",0.112
same,solubility (mole fraction),"in isobutanol, 303.15 K",0.279
same,solubility (mole fraction),"in isobutanol, 308.15 K",0.709
same,solubility (mole fraction),"in isopropanol, 283.15 K",0.0169
same,solubility (mole fraction),"in isopropanol, 288.15 K",0.0273
same,solubility (mole fraction),"in isopropanol, 293.15 K",0.0487
same,solubility (mole fraction),"in isopropanol, 298.15 K",0.101
same,solubility (mole fraction),"in isopropanol, 303.15 K",0.275
same,solubility (mole fraction),"in isopropanol, 308.15 K",0.702
same,solubility (mole fraction),"in methanol, 283.15 K",0.0162
same,solubility (mole fraction),"in methanol, 288.15 K",0.0251
same,solubility (mole fraction),"in methanol, 293.15 K",0.0459
same,solubility (mole fraction),"in methanol, 298.15 K",0.0946
same,solubility (mole fraction),"in methanol, 303.15 K",0.274
same,solubility (mole fraction),"in methanol, 308.15 K",0.694
same,solubility (mole fraction),"in n-butanol, 283.15 K",0.0337
same,solubility (mole fraction),"in n-butanol, 288.15 K",0.0511
same,solubility (mole fraction),"in n-butanol, 293.15 K",0.0908
same,solubility (mole fraction),"in n-butanol, 298.15 K",0.182
same,solubility (mole fraction),"in n-butanol, 303.15 K",0.34
same,solubility (mole fraction),"in n-butanol, 308.15 K",0.75
same,solubility (mole fraction),"in n-propanol, 283.15 K",0.0272
same,solubility (mole fraction),"in n-propanol, 288.15 K",0.043
same,solubility (mole fraction),"in n-propanol, 293.15 K",0.0756
same,solubility (mole fraction),"in n-propanol, 298.15 K",0.152
same,solubility (mole fraction),"in n-propanol, 303.15 K",0.33
same,solubility (mole fraction),"in n-propanol, 308.15 K",0.718
same,solubility (mole fraction),"in sec-butanol, 283.15 K",0.0381
same,solubility (mole fraction),"in sec-butanol, 288.15 K",0.0602
same,solubility (mole fraction),"in sec-butanol, 293.15 K",0.105
same,solubility (mole fraction),"in sec-butanol, 298.15 K",0.201
same,solubility (mole fraction),"in sec-butanol, 303.15 K",0.398
same,solubility (mole fraction),"in sec-butanol, 308.15 K",0.752
